These results are taken from patent US9725752B2, “Resonator and process for performing biological assay” (THE UNITED STATES OF AMERICA, AS REPRESENTED BY THE …, priority 2015, dated 2017).

Holding throughout (type): cell-based
Assay [1] deals with Escherichia coli (E. coli) cells. Nature of the assay: Phase noise of piezoelectric resonator with adhered microbes exposed to antibiotic. The following applies: for time frame in which the resonator method detects antimicrobial action against live E. coli cells: preliminary experiments; for PSDs of the acoustic resonators when the antibiotic was introduced: spectral power 4 Hz to 20 Hz, FIG. 35, FIG. 36. The method, then: An acoustic article was prepared to detect microbial viability through measurements of phase noise of a resonator on which microbes were adhered. An acoustic article was prepared by combining a piezoelectric resonator (commercially available from Biolin Scientific, model Q-Sense) and custom fabricated components that interfaced to the piezoelectric resonator. The piezoelectric resonator included an electrical contact to a piezoelectric crystal. […] One side of the piezoelectric crystal faced a fluid chamber and was coated with a thin layer of poly-L-lysine (PLL) to promote adhesion of microbes to the surface. The piezoelectric resonator was disposed on an aluminum platform that incorporated electrical lines to the resonator, and the platform was placed on a thermally controlled platform held at a constant temperature of approximately 37° C. Phosphate-buffered saline (PBS) was introduced to the fluid chamber, and electronics configured according to FIG. 30 and FIG. 31 were used to determine the resonant frequency of the resonator by varying the output frequency from frequency source 200 while monitoring the amplitude of the RF output from amplifier 222. The output frequency of the CW voltage from the frequency source was then set to this measured resonant frequency. Subsequently, averaged power spectral densities of phase noise from the resonator were determined from the measured time-varying voltage from phase-noise detector 106 passed to vector signal analyzer 206, through the use of a calibration of phase-noise detector 106. Following acquisition of this background spectrum, Escherichia coli (E. coli) cells were suspended in PBS and flowed through the fluid chamber over the crystal for five minutes. The chamber was then drained of fluid and refilled with Luria-Bertani (LB) broth to provide nutrients for bacterial growth. E. coli adhered to the crystal surface during this sequence, and unattached cells were washed away.
Power spectral densities (PSDs) were repeatedly acquired over a period beginning 30 minutes before ampicillin in LB was introduced to the crystal and ending 68 minutes after this introduction of ampicillin. Before the acquisition of each averaged spectrum, the output of frequency source 200 was retuned to the current frequency of the resonator while monitoring the output of amplifier 222. […] The background PSD in PBS has been subtracted from these spectra.
To provide a scalar quantity reflective of the measured PSDs, the spectra in FIG. 33 and similar spectra at other times during the experiment were integrated over the frequency range from 3 Hz to 20 Hz. This quantity, which is the total spectral power over this frequency range, is plotted in FIG. 34 as a function of time.
Simultaneous control measurements of PSDs were also acquired on a second piezoelectric crystal with the same sequence of introduction of fluids, except that the effector fluid contained no ampicillin. With this control crystal, PSDs increased continuously during the entire experiment.
The acoustic article, electronic circuitry, data acquisition procedures, and fluid-analyte processing steps described in Example 1 were used to probe the effect of an antibiotic, polymyxin B, on phase noise generated by E. coli Here, two identical resonators (“Crystal A” and “Crystal B”) were used in which Crystal B was not exposed to polymyxin B until more than 40 minutes after introduction of polymyxin B to Crystal A.
Measurements of PSDs of the first resonator (Crystal A) before and after exposure of E. coli to polymyxin B are shown in FIG. 35. […] Data from second resonator Crystal B with E. coli not exposed to polymyxin B during 0-40 minutes are shown in FIG. 36 and labelled as “Crystal B,” wherein data labelled as “Crystal A” are data taken in presence of polymyxin B during 0-40 minutes and later.

For assay [2] the test system is unchanged. In words: Plating of cells collected from the crystal for enumeration of colony-forming units (CFUs). The following applies: LB-agar plates, growth at least 24 hours; for number of CFUs relative to a parallel sample not exposed to antibiotic: cells collected from crystal. From the text: To confirm the action of the antibiotic on E. coli viability, cells were collected from the surface of the crystal and plated after serial dilution onto LB-agar plates for enumeration of colony-forming units (CFUs).
To confirm the action of the antibiotic on E. coli viability, cells were collected from the surface of the resonators (Crystal A and Crystal B) and plated after serial dilution onto LB-agar plates for enumeration of colony-forming units (CFUs).

Assay [3] has the same test system. Nature of the assay: Optical microscope images of cell density on the crystal.

Take `CC1(C)S[C@@H]2[C@H](NC(=O)[C@H](N)c3ccccc3)C(=O)N2[C@H]1C(=O)O` [ampicillin]: in assay [1] (PSD integrated 3 Hz to 20 Hz, E. coli on PLL-coated crystal in LB, approx. 37° C., FIG. 34), the “spectral power of phase noise soon after introduction of antibiotic” value is on record as “essentially leveled off”. Moreover, the “time after introduction of antibiotic at which spectral power began dropping towards the background level” value in assay [1] (PSD integrated 3 Hz to 20 Hz, FIG. 34) was “approximately 30 minutes”. Moreover, in assay [1], the “time frame in which the resonator method detects antimicrobial action against live E. coli cells” value is reported as “within a one-hour time frame” and the “PSDs of the acoustic resonators when the antibiotic was introduced” value is “dropped dramatically”. Besides, the “number of CFUs relative to a parallel sample not exposed to antibiotic” value in assay [2] was “several log decrease”. Further, the “cell density after introduction of antibiotic” value in assay [3] (period beginning 30 min after introduction of ampicillin, FIG. 34) was “dropped as a result of lysing and disintegration of cells”.

Consider polymyxin B, for which, in assay [1], the “time frame in which the resonator method detects antimicrobial action against live E. coli cells” value was “within a one-hour time frame” and the “PSDs of the acoustic resonators when the antibiotic was introduced” value is reported as “dropped dramatically”. Further, the “CFUs recovered from treated resonators” value in assay [2] (FIG. 37) is “no CFUs were recovered”. In addition, the “number of CFUs relative to a parallel sample not exposed to antibiotic” value in assay [2] was “greater than several log decrease”. Besides, the “disintegration of E. coli cells” value in assay [3] is recorded as “does not induce a disintegration”.
